In patent publication US9139557B2, “Carboxamide compounds and their use as calpain inhibitors” (Abbott GmbH & Co. KG, priority 2006, dated 2015):

Legend:
Format in all cases: biochemical
cathepsin B = molecular target: T1, cathepsin B (Homo sapiens, UniProt P07858); experiment: Cathepsin B enzyme inhibition in vitro (kinetic fluorescence assay); conditions: Ki(cathepsin B)/Ki(calpain) ratio
T1 construct: cathepsin B—isolated from human liver; purchased Calbiochem 219362; host or cells: human liver (tissue isolate)
Protocol: (§1) Testing for blockade of the corresponding enzymic activities was carried out by means of kinetic fluorescence assays (excitation 390 nm, emission 460 nm).
(§2) Apparent Ki values were calculated from the experimentally determined IC50 values by the Cheng-Prussoff relation assuming a reversible competitive enzyme inhibition. The Km values of the substrates used under the assay conditions indicated above were: 90 μM (Z-Phe-Arg-AMC, cathepsin B), 10 μM (Z-Gly-Pro-Arg-AMC, cathepsin K), 2 μM (Z-Phe-Arg-AMC, cathepsin L), and 30 μM (Z-Val-Val-Arg-AMC, cathepsin S).
(§3) The indicated Ki values are averages of the inhibition constants calculated on the basis of 2 to 4 independent dose-effect plots.
(§4) • 1. Calpain I: • 20 nM calpain-I—isolated from human erythrocytes (Calbiochem #208713), 100 μM Suc-Leu-Tyr-AMC (Bachem #1-1355) as substrate in buffer with 62 mM imidazole, 0.3 mM CaCl2, 0.10% CHAPS, 0.05% BSA, 1 mM DTT at pH 7.3 and room temperature. • 2. Cathepsin B: • 0.25 nM cathepsin B—isolated from human liver (Calbiochem #219362), 100 μM Z-Phe-Arg-AMC (Bachem #1-1160) as substrate 50 mM MES, 2 mM EDTA, 0.05% Brij 35, 2.5 mM L-cysteine, pH 6.0, room temperature. • 3. Cathepsin K: • 3 nM cathepsin K—activated from recombinant human procathepsin K from E. coli (Calbiochem #342001), 10 μM Z-Gly-Pro-Arg-AMC (Biomol #P-142) as substrate in 50 mM MES, 2 mM EDTA, 0.05% Brij 35, 2.5 mM L-cysteine, pH 6.0, room temperature. • 4. Cathepsin L: • 1 nM cathepsin L—isolated from human liver (Calbiochem #219402), 2 μM Z-Phe-Arg-AMC (Bachem #1-1160) as substrate in 50 mM MES, 2 mM EDTA, 0.05% Brij 35, 2.5 mM L-cysteine, pH 6.0, room temperature. • 5. Cathepsin S: • 0.5 nM recombinant human cathepsin S from E. coli (Calbiochem #219343), 20 μM Z-Val-Val-Arg-AMC (Bachem #1-1540) as substrate in 50 mM MES, 2 mM EDTA, 0.05% Brij 35, 2.5 mM L-cysteine, pH 6.0, room temperature.

cathepsin L = molecular target: T2, cathepsin L (Homo sapiens, UniProt P07711); experiment: Cathepsin L enzyme inhibition in vitro (kinetic fluorescence assay); conditions: Ki(cathepsin L)/Ki(calpain) ratio
T2 construct: cathepsin L—isolated from human liver; purchased Calbiochem 219402; host or cells: human liver (tissue isolate)
T2 sequence (P07711 114-333): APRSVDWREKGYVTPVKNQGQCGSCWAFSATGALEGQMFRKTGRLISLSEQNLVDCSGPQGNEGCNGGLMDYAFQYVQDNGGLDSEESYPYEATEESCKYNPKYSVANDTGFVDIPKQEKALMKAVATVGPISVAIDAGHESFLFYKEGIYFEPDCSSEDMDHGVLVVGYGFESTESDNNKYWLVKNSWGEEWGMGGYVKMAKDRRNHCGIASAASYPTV
Protocol: as §1, §2, §3, §4

cathepsin K = molecular target: T3, cathepsin K (Homo sapiens, UniProt P43235); experiment: Cathepsin K enzyme inhibition in vitro (kinetic fluorescence assay); conditions: Ki(cathepsin K)/Ki(calpain) ratio
T3 construct: purchased Calbiochem 342001; host or cells: E. coli
T3 sequence (P43235 115-329): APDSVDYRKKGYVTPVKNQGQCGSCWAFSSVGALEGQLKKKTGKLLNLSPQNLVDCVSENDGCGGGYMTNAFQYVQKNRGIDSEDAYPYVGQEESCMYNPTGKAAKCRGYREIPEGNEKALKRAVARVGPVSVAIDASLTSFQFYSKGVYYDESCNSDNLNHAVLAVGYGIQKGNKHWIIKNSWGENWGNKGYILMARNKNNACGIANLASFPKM
Protocol: as §1, §2, §3, §4

cathepsin S = molecular target: T4, cathepsin S (Homo sapiens, UniProt P25774); experiment: Cathepsin S enzyme inhibition in vitro (kinetic fluorescence assay); conditions: Ki(cathepsin S)/Ki(calpain) ratio
T4 construct: purchased Calbiochem 219343; host or cells: E. coli
T4 sequence (P25774 115-331): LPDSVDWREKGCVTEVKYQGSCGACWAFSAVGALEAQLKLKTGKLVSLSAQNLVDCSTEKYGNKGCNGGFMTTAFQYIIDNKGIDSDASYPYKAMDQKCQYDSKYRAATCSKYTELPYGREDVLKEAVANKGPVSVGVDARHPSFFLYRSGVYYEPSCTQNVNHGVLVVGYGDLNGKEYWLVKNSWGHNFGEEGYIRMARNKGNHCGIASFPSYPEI
Protocol: as §1, §2, §3, §4

| Molecule | Sel cat. B (cathepsin B) | Sel cat. L (cathepsin L) | Sel cat. K (cathepsin K) | Sel cat. S (cathepsin S) |
| --- | --- | --- | --- | --- |
| NC(=O)C(=O)C(Cc1ccccc1)NC(=O)c1cc(Cl)cnc1-n1ccc(-c2ccccc2)n1 (stereo not shown) [Example 27, N-(3-Amino-1-benzyl-2,3-dioxopropyl)-5-chloro-2-(3-phenyl-1H-pyrazol-1-yl)nicotin-amide] | ++ (++ means a Ki(cathepsin B)/Ki(calpain) ratio of ≧30) | + (+ means 30≦Ki(cathepsin L)/Ki(calpain)<50) | + (+ means 10≦Ki(cathepsin K)/Ki(calpain)<30) |  |
| N#Cc1cnc(-n2ccc(-c3ccccc3F)n2)c(C(=O)NC(Cc2ccccc2)C(=O)C(N)=O)c1 (stereo not shown) [Example 188, N-[3-Amino-2,3-dioxo-1-(phenylmethyl)propyl]-5-cyano-2-[3-(2-fluorophenyl)-1H-pyrazol-1-yl]pyridine-3-carboxamide] |  | ++ (++ means a Ki(cathepsin L)/Ki(calpain) ratio of ≧50) | ++ (++ means a Ki(cathepsin K)/Ki(calpain) ratio of ≧30) |  |
| CN1CCN(c2ccc(-c3ccn(-c4ncccc4C(=O)NC(Cc4ccccc4)C(=O)C(N)=O)n3)cc2)CC1 (stereo not shown) [Example 68, N-(3-Amino-1-benzyl-2,3-dioxopropyl)-2-{3-[4-(4-methylpiperazin-1-yl)phenyl]-1H-pyrazol-1-yl}nicotinamide] |  |  | + (+ means 10≦Ki(cathepsin K)/Ki(calpain)<30) | ++ (++ means a Ki(cathepsin S)/Ki(calpain) ratio of ≧100) |
| N#Cc1cnc(-n2ccc(-c3ccccc3)n2)c(C(=O)NC(Cc2ccccc2)C(=O)C(N)=O)c1 (stereo not shown) [Example 82, N-(3-Amino-1-benzyl-2,3-dioxopropyl)-5-cyano-2-(3-phenyl-1H-pyrazol-1-yl)nicotinamide] | ++ (++ means a Ki(cathepsin B)/Ki(calpain) ratio of ≧30) | ++ (++ means a Ki(cathepsin L)/Ki(calpain) ratio of ≧50) | ++ (++ means a Ki(cathepsin K)/Ki(calpain) ratio of ≧30) |  |
| NC(=O)C(=O)C(CC1CCCCC1)NC(=O)c1cccnc1-n1ccc(-c2ccccc2)n1 (stereo not shown) [Example 66, N-[3-Amino-1-(cyclohexylmethyl)-2,3-dioxopropyl]-2-(3-phenyl-1H-pyrazol-1-yl)nicotinamide] |  | + (+ means 30≦Ki(cathepsin L)/Ki(calpain)<50) | + (+ means 10≦Ki(cathepsin K)/Ki(calpain)<30) | ++ (++ means a Ki(cathepsin S)/Ki(calpain) ratio of ≧100) |
| NC(=O)C(=O)C(Cc1cccs1)NC(=O)c1cccnc1-n1ccc(-c2ccccc2)n1 (stereo not shown) [Example 40, N-[3-Amino-2,3-dioxo-1-(2-thienylmethyl)propyl]-2-(3-phenyl-1H-pyrazol-1-yl)pyridine-3-carboxamide] | + (+ means 10≦Ki(cathepsin B)/Ki(calpain)<30) | ++ (++ means a Ki(cathepsin L)/Ki(calpain) ratio of ≧50) |  | ++ (++ means a Ki(cathepsin S)/Ki(calpain) ratio of ≧100) |
| NC(=O)C(=O)C(Cc1ccccc1)NC(=O)c1cccnc1-n1ccc(-c2cccc3cnccc23)n1 (stereo not shown) [Example 156, N-[3-Amino-2,3-dioxo-1-(phenylmethyl)propyl]-2-(3-isoquinolin-5-yl-1H-pyrazol-1-yl)pyridine-3-carboxamide] | + (+ means 10≦Ki(cathepsin B)/Ki(calpain)<30) | + (+ means 30≦Ki(cathepsin L)/Ki(calpain)<50) |  | ++ (++ means a Ki(cathepsin S)/Ki(calpain) ratio of ≧100) |
| NC(=O)C(=O)C(Cc1ccccc1)NC(=O)c1cccnc1-n1ccc(-c2ccc3c(c2)CCO3)n1 (stereo not shown) [Example 75, N-(3-Amino-1-benzyl-2,3-dioxopropyl)-2-[3-(2,3-dihydrobenzo[b]furan-5-yl)-1H-pyrazol-1-yl]nicotinamide] |  | ++ (++ means a Ki(cathepsin L)/Ki(calpain) ratio of ≧50) | + (+ means 10≦Ki(cathepsin K)/Ki(calpain)<30) | ++ (++ means a Ki(cathepsin S)/Ki(calpain) ratio of ≧100) |
| Cc1cn(-c2ncccc2C(=O)NC(Cc2ccccc2)C(=O)C(N)=O)nc1-c1ccccc1 (stereo not shown) [Example 84, N-(3-Amino-1-benzyl-2,3-dioxopropyl)-2-(4-methyl-3-phenyl-1H-pyrazol-1-yl)nicotinamide] | + (+ means 10≦Ki(cathepsin B)/Ki(calpain)<30) | ++ (++ means a Ki(cathepsin L)/Ki(calpain) ratio of ≧50) |  | ++ (++ means a Ki(cathepsin S)/Ki(calpain) ratio of ≧100) |
| N-{3-Amino-1-[(4-fluorophenyl)methyl]-2,3-dioxopropyl}-2-[3-(2,3-dichlorophenyl)-1H-pyrazol-1-yl]pyridine-3-carboxamide [Example 161] | + (+ means 10≦Ki(cathepsin B)/Ki(calpain)<30) | + (+ means 30≦Ki(cathepsin L)/Ki(calpain)<50) |  | ++ (++ means a Ki(cathepsin S)/Ki(calpain) ratio of ≧100) |
| Cl.NC(=O)C(=O)C(Cc1ccccc1)NC(=O)c1cccnc1-n1ccc(-c2ccc(N3CCOCC3)cc2)n1 (stereo not shown) [Example 29, N-(3-Amino-1-benzyl-2,3-dioxopropyl)-2-[3-(4-morpholin-4-ylphenyl)-1H-pyrazol-1-yl]nicotinamide hydrochloride] |  | ++ (++ means a Ki(cathepsin L)/Ki(calpain) ratio of ≧50) | + (+ means 10≦Ki(cathepsin K)/Ki(calpain)<30) | ++ (++ means a Ki(cathepsin S)/Ki(calpain) ratio of ≧100) |
| NC(=O)C(=O)C(Cc1ccccc1)NC(=O)c1cccnc1-n1ccc(C2CCCCC2)n1 (stereo not shown) [Example 192, N-[3-Amino-2,3-dioxo-1-(phenylmethyl)propyl]-2-(3-cyclohexyl-1H-pyrazol-1-yl)pyridine-3-carboxamide] |  | ++ (++ means a Ki(cathepsin L)/Ki(calpain) ratio of ≧50) | + (+ means 10≦Ki(cathepsin K)/Ki(calpain)<30) | ++ (++ means a Ki(cathepsin S)/Ki(calpain) ratio of ≧100) |
| CC(C)c1ccc2c(c1)-c1nn(-c3ncccc3C(=O)NC(Cc3ccccc3)C(=O)C(N)=O)cc1CO2 (stereo not shown) [Example 144, N-[3-Amino-2,3-dioxo-1-(phenylmethyl)propyl]-2-[8-(1-methylethyl)chromeno[4,3-c]pyrazol-2(4H)-yl]pyridine-3-carboxamide] | + (+ means 10≦Ki(cathepsin B)/Ki(calpain)<30) | ++ (++ means a Ki(cathepsin L)/Ki(calpain) ratio of ≧50) |  | ++ (++ means a Ki(cathepsin S)/Ki(calpain) ratio of ≧100) |
| NC(=O)C(=O)C(Cc1ccccc1)NC(=O)c1cccnc1-n1ccc(-c2cccc(N3CCCC3)c2)n1 (stereo not shown) [Example 74, N-(3-Amino-1-benzyl-2,3-dioxopropyl)-2-[3-(3-pyrrolidin-1-ylphenyl)-1H-pyrazol-1-yl]nicotinamide] | ++ (++ means a Ki(cathepsin B)/Ki(calpain) ratio of ≧30) |  | ++ (++ means a Ki(cathepsin K)/Ki(calpain) ratio of ≧30) | ++ (++ means a Ki(cathepsin S)/Ki(calpain) ratio of ≧100) |
